Reference: patent publication US11136320B2, “Fused ring derivative used as FGFR4 inhibitor” (JACOBIO PHARMACEUTICALS CO., LTD., priority 2019, dated 2021)

Key:
FGFR4 kinase [1] = target: T1, FGFR4 kinase (Homo sapiens (Human), UniProt P22455); experiment: biochemical
FGFR4 kinase [2] = target: T1, FGFR4 kinase
[3] = test system: Hepatoma cell Hep3B (high expression of FGFR4 and FGF19); experiment: Hepatoma cell proliferation inhibition experiment (MTS method); format: cell-based
PK analysis of rats = format: in vivo; conditions: SD rats, p.o. (10 mg/kg)
Hep3B = experiment: Pharmacodynamic in vivo, Hep3B model tumor growth inhibition; design: species or system NOD-SCID mice
Text: The Hep3B cell line was purchased from ATCC; MEM cell culture medium, fetal bovine serum, and trypsin were purchased from Gibco; cell culture flasks were purchased from Greiner; and disposable Cell Counting Plate and taittinger Blue Solution Purchased from Bio-Rad. The disposable sterile syringe was purchased from Changzhou Jinlong Medical Plastic Instrument Co., Ltd, eye surgical scissors and eye surgical forceps were purchased from Shanghai Medical Instrument (Group) Co., Ltd. Surgical Instrument Factory, and 6-8 week old female NOD-SCID mice were purchased from Vitalivar.
a. One strain of Hep3B cells was taken out from the cell bank and MEM medium (MEM+10% FBS+1% PS) was used to recover the cells. The resuscitated cells were placed in a cell culture flask (the wall the flask was marked with the cell type, date, cultivator's name), and the cell culture flask was placed in a CO2 incubator (the temperature of the incubator was 37° C. and the CO2 concentration of the incubator was 5%);
b. When the cells covered about 90% of the bottom of the culture flask, passage was conducted. the cells were continued to cultivate in a CO2 incubator after passage. The above process was repeated until the number of the cell satisfied the requirements of pharmacodynamic in vivo;
c. The cultured cells were collected and counted using a BIO-Rad TC20 cell counter. According to the counting results, the cultured cells were resuspended with PBS and matrix gel (1:1) to obtain a cell suspension (density 5×10^7/ml), and the cell suspension was placed in an ice box for later use.
a. The cells were mixed well before seeding, and 0.5 ml of cell suspension was taken with a 1 ml syringe and bubbles in the cell suspension were removed. The syringe with the cell suspension was place on an ice pack for later use.
b. The NOD-SCID mice were set with the left hand, and the skin on the right back of the mice was disinfected with 75% alcohol. The inoculation was beginning after 30 seconds.
c. During inoculation, 1 mL syringe was on the right hand, and the cell suspension of Hep3B was inoculated subcutaneously into the right shoulder of the right back of the mouse at 0.1 mL/mouse. At inoculation interval, the syringe was placed on an ice pack and the mice were inoculated sequentially.
d. According to the tumor growth, the tumor was measured and the tumor size was calculated on the 12-15 days after inoculation.
Tumor volume calculation: tumor volume (mm^3)=length (mm)×width (mm)×width (mm)/2
e. When the tumors grew to an average volume of 100-150 mm^3, the mice were randomly divided into two groups according to tumor size and the weight of the mouse. […]
f. […] Tumors were measured and the mice were weighed twice a week after administration. […]

T1 sequence (P22455 22-802): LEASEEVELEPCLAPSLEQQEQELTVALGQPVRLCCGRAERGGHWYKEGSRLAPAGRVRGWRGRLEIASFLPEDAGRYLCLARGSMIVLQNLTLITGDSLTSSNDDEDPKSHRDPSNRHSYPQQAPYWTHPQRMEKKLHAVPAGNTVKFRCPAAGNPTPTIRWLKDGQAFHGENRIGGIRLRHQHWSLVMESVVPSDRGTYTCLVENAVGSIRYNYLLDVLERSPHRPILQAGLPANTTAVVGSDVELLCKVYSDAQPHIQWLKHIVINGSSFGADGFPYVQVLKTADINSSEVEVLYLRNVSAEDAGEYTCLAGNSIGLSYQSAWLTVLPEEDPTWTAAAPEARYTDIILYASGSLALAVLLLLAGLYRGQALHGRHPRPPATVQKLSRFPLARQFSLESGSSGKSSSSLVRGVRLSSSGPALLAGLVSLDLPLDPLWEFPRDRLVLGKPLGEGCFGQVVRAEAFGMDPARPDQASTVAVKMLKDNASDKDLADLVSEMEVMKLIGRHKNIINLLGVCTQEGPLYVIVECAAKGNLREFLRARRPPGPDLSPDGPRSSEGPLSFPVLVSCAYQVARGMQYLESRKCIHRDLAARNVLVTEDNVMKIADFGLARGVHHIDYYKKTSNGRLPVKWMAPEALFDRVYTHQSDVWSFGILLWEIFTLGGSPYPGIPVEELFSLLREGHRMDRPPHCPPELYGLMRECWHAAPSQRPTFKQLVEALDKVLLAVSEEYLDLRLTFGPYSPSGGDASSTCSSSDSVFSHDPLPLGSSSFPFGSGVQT

Structure (SMILES): CSC[C@@H](C)Nc1cc(NC(=O)N2CCCc3cc(CN4CCN(C)CC4=O)c(C=O)nc32)ncc1C#N [Compound 4, (R)—N-(5-Cyano-4-((1-(methylthio)propan-2-yl)amino)pyridin-2-yl)-7-formyl-6-((4-methyl-2-oxopiperazin-1-yl)methyl)-3,4-dihydro-1,8-naphthyridine-1 (2H)-carboxamide]
- IC50 (FGFR4 kinase [1]): 1.4 nM
- inhibitory effect on FGFR4 compared with the reference compound (FGFR4 kinase [2]): better inhibitory effect on FGFR4 than the reference compound
- inhibitory effect on Hepatoma cell Hep3B compared with the reference compound [3]: better inhibitory effect
- IC50 ([3]; Homo sapiens, Hep3B, 120 h incubation, read-out: Hep3B(IC50 μM)): 0.014 µM
- exposure amount AUC0-24 h and maximum drug concentration in blood Cmax compared with the reference compound (PK analysis of rats): significantly higher than the reference compound
- AUC(0-t) (PK analysis of rats; rat, plasma, po, read-out: Curve area AUC0-24 h): 4670 ng·h/mL
- Cmax (PK analysis of rats; rat, plasma, po, read-out: Drug concentration in blood Cmax): 1450 ng/mL
- antitumor effect (Hep3B): excellent antitumor effect
- effect of 15 mg/kg BID compared with 60 mg/kg QD of the reference compound (Hep3B): equivalent
- TGI % (Hep3B; 15 mg/kg BID, gavage): 96.7%
